This is an account of results in PubChem BioAssay AID1259407 (Chemical Carcinogenesis Research Information System (CCRIS), 2018).

The source made the active and inactive calls. The rule behind the calls is not given here.

The series has as its system CCRIS mutagenicity, Ames/micronucleus/aberration tests. The series is described as follows: CCRIS mutagenicity studies.
The mark [1] stands for this setting: Test System: AMES SALMONELLA TYPHIMURIUM, Strain/Indicator: TA100, Metabolic Activation: NONE, Method: STANDARD PLATE.
The mark [2] stands for this setting: Test System: AMES SALMONELLA TYPHIMURIUM, Strain/Indicator: TA97, Metabolic Activation: NONE, Method: STANDARD PLATE.

Turning to `O=[N+]([O-])c1ccc2ccc3cc4ccccc4c4ccc1c2c34`, the mutagenic call is “active; positive” (Test System: AMES SALMONELLA TYPHIMURIUM, Strain/Indicator: TA98(1,8-DNP6), Metabolic Activation: NONE); “active; positive” (Test System: AMES SALMONELLA TYPHIMURIUM, Strain/Indicator: TA98(1,8-DNP6), Metabolic Activation: NONE, Method: STANDARD PLATE); “active; positive” (Test System: AMES SALMONELLA TYPHIMURIUM, Strain/Indicator: TA98(1,8-DNP6), Metabolic Activation: RAT, LIVER, S-9, AROCLOR 1254); “active; positive” (Test System: AMES SALMONELLA TYPHIMURIUM, Strain/Indicator: TA98(NR), Metabolic Activation: NONE); “active; positive” (Test System: AMES SALMONELLA TYPHIMURIUM, Strain/Indicator: TA98(NR), Metabolic Activation: NONE, Method: PREINCUBATION); “inactive; negative” (Test System: AMES SALMONELLA TYPHIMURIUM, Strain/Indicator: TA98(NR), Metabolic Activation: NONE, Method: STANDARD PLATE). For the same compound, the mutagenic call (Test System: AMES SALMONELLA TYPHIMURIUM, Strain/Indicator: TA98(NR), Metabolic Activation: RAT, LIVER, S-9, AROCLOR 1254) is “active; positive”; the mutagenic call (Test System: AMES SALMONELLA TYPHIMURIUM, Strain/Indicator: TA98, Metabolic Activation: NONE) is “active; positive”; the mutagenic call (Test System: AMES SALMONELLA TYPHIMURIUM, Strain/Indicator: TA98, Metabolic Activation: NONE', Method: STANDARD PLATE) was “active; positive”; the mutagenic call (Test System: AMES SALMONELLA TYPHIMURIUM, Strain/Indicator: TA98, Metabolic Activation: NONE, Method: PREINCUBATION) is “active; positive”; the mutagenic call (Test System: AMES SALMONELLA TYPHIMURIUM, Strain/Indicator: TA98, Metabolic Activation: NONE, Method: STANDARD PLATE) was “active; positive”; the mutagenic call (Test System: AMES SALMONELLA TYPHIMURIUM, Strain/Indicator: TA98, Metabolic Activation: NONE, Method: STANDARD PLATE (ANAEROBIC)) is “active; positive”. Also, the mutagenic call is, setting by setting: (Test System: AMES SALMONELLA TYPHIMURIUM, Strain/Indicator: TA98, Metabolic Activation: RAT, LIVER, HEPATOCYTES, AROCLOR 1254) “active; positive”; (Test System: AMES SALMONELLA TYPHIMURIUM, Strain/Indicator: TA98, Metabolic Activation: RAT, LIVER, S-9, AROCLOR 1254) “active; positive”; under setting [1], “active; positive”; (Test System: CHINESE HAMSTER OVARY, Strain/Indicator: CHO-K1-BH4 (HGPRT), Metabolic Activation: NONE) “inactive; negative”; (Test System: CHINESE HAMSTER OVARY, Strain/Indicator: CHO-K1-BH4 (HGPRT), Metabolic Activation: RAT, LIVER, S-9, 3-METHYLCHOLANTHRENE) “active; positive”; (Test System: CHO/HGPRT, Strain/Indicator: CHO-K1-BH4, Metabolic Activation: NONE) “inactive; negative”. Further, the mutagenic call by setting is: (Test System: CHO/HGPRT, Strain/Indicator: CHO-K1-BH4, Metabolic Activation: RAT, LIVER, HEPATOCYTES) “inactive; negative”; (Test System: CHO/HGPRT, Strain/Indicator: CHO-K1-BH4, Metabolic Activation: RAT, LIVER, HEPATOCYTES, 3-METHYLCHOLANTHRENE) “inactive; negative”; (Test System: CHO/HGPRT, Strain/Indicator: CHO-K1-BH4, Metabolic Activation: RAT, LIVER, HEPATOCYTES, AROCLOR 1254) “inactive; negative”; (Test System: CHO/HGPRT, Strain/Indicator: CHO-K1-BH4, Metabolic Activation: RAT, LIVER, S-9) “inactive; negative”; (Test System: CHO/HGPRT, Strain/Indicator: CHO-K1-BH4, Metabolic Activation: RAT, LIVER, S-9, 3-METHYLCHOLANTHRENE) “active; positive”; (Test System: CHO/HGPRT, Strain/Indicator: CHO-K1-BH4, Metabolic Activation: RAT, LIVER, S-9, AROCLOR 1254) “active; positive”.
In the case of `Fc1ccc2ncccc2c1F`, the mutagenic call (Test System: AMES SALMONELLA TYPHIMURIUM, Strain/Indicator: TA100, Metabolic Activation: RAT LIVER S-9, PHENOBARBITAL AND 5,6-BENZOFLAVONE, Method: PREINCUBATION) is “active; positive”.
Regarding `CC(=O)N[C@@H](CS)C(=O)O`, the mutagenic call runs as follows: (Test System: AMES SALMONELLA TYPHIMURIUM, Strain/Indicator: TA92, Metabolic Activation: NONE, Method: STANDARD PLATE) “inactive; negative”; (Test System: AMES SALMONELLA TYPHIMURIUM, Strain/Indicator: TA92, Metabolic Activation: RAT, KIDNEY, S-9, Method: STANDARD PLATE) “active; positive”; under setting [2], “inactive; negative”; (Test System: AMES SALMONELLA TYPHIMURIUM, Strain/Indicator: TA97, Metabolic Activation: RAT, KIDNEY, S-9, Method: STANDARD PLATE) “active; positive”; (Test System: AMES SALMONELLA TYPHIMURIUM, Strain/Indicator: TA102, Metabolic Activation: NONE, Method: STANDARD PLATE) “inactive; negative”; (Test System: AMES SALMONELLA TYPHIMURIUM, Strain/Indicator: TA104, Metabolic Activation: NONE, Method: STANDARD PLATE) “inactive; negative”. Besides, the mutagenic call by setting is: (Test System: AMES SALMONELLA TYPHIMURIUM, Strain/Indicator: TA104, Metabolic Activation: RAT, KIDNEY, S-9, Method: STANDARD PLATE) “active; positive”; (Test System: CHINESE HAMSTER V-79, Strain/Indicator: V-79/6-THIOGUANINE, Metabolic Activation: NONE, Method: STANDARD PLATE) “inactive; negative”.
Take `NN(c1ccccc1)c1ccccc1`: the mutagenic call under setting [2] is “inactive; negative”; the mutagenic call (Test System: AMES SALMONELLA TYPHIMURIUM, Strain/Indicator: TA97, Metabolic Activation: RAT, LIVER, S-9, AROCLOR 1254, Method: STANDARD PLATE) was “inactive; negative”; the mutagenic call under setting [1] is “inactive; negative”; the mutagenic call (Test System: AMES SALMONELLA TYPHIMURIUM, Strain/Indicator: TA100, Metabolic Activation: RAT, LIVER, S-9, AROCLOR 1254, Method: STANDARD PLATE) was “inactive; negative”.
